Test results taken from patent US12144864B2, “Tubulysins and protein-tubulysin conjugates” (Regeneron Pharmaceuticals, Inc., priority 2018, dated 2024).
Like-named read-outs stand apart in the source and are kept apart here.

Tests used:
C4-2 cells = experiment: Cell-based killing assay of payloads (CellTiter-Glo), C4-2 cells; design: species or system human; details: 5-day incubation; for IC50: Homo sapiens, C4-2, 120 h, average ± SD where replicates; for C4-2 % Kill: at maximum concentration tested (100 − % viable cells)
In short: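 Viability readout is CellTiter-Glo luminescence after a 5-day exposure to 10-point, threefold-diluted payloads spanning 100 nM–[…], following overnight attachment of 4000 cells/well. Four-parameter logistic fit gives IC50 in M; % kill taken at highest concentration tested.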

T47D cells = experiment: Cell-based killing assay of payloads (CellTiter-Glo), T47D cells; design: species or system human; details: 5-day incubation; for IC50: Homo sapiens, T47D, 120 h; for T47D % Kill: at maximum concentration tested
Description: (§1) To test the ability of the disclosed tubulysin payloads to kill human cell lines, an in vitro cytotoxicity assay was performed. In vitro cytotoxicity of the disclosed payloads, as well as reference compounds, were evaluated using the CellTiter-Glo Assay Kit (Promega, Cat #G7573), in which the quantity of ATP present is used to determine the number of viable cells in culture. For the assay, C4-2, HEK293, or T47D cells were seeded at 4000 cells/well on Nunclon white 96-well plates in complete growth medium (DME high glucose:Ham's F12 at 4:1, 10% FBS, 100 units/ml Penicillin, 100 ug/ml streptomycin, 53 ug/ml glutatmine, 10 ug/ml insulin, 220 ng/ml biotin, 12.5 pg/ml T3, 12.5 ug/ml Adenine, 4 ug/ml transferrin for C42 cells; DME high glucose, 10% FBS, 100 units/ml Penicillin, 100 ug/ml streptomycin, 53 ug/ml glutatmine for HEK293; RPMI, 10% FBS, 100 units/ml Penicillin, 100 ug/ml streptomycin, 53 ug/ml glutatmine, 10 ug/ml insulin, 10 mM HEPEs, 200 nM Sodium Pyruvate for T47D cells) and grown overnight at 37° C. in 5% CO2. For cell viability curves, 1:3 serially diluted payloads were added to the cells at final concentrations ranging from 100 nM to […], including a no treatment control group, and were then incubated for 5 days. After the 5-day incubation, cells were incubated at room temperature with 100 μL of CellTiter-Glo reagents for 10 minutes. Relative luminescence units (RLU) were determined on a Victor plate reader (PerkinElmer). The IC50 values were determined from a four-parameter logistic equation over a 10-point response curve (GraphPad Prism). All IC50 values are expressed in molar (M) concentration. The percent cell killing (% kill) at the maximum concentration tested was estimated from the following formula (100−% viable cells). Averages±standard deviation (SD) are included where replicate experiments were performed.

HEK293 cells = experiment: Cell-based killing assay of payloads (CellTiter-Glo), HEK293 cells; design: species or system human; details: 5-day incubation; for IC50: Homo sapiens, HEK293, 120 h; for HEK293 % Kill: at maximum concentration tested
Description: as §1

HCT15 cells = experiment: cells; assay type: cell-based, human; details: HCT15 cells; for HCT-15 + verapamil % Kill / HCT-15 % Kill: maximum % cell killing
In short: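 Five-day exposure of 1000 HCT15 cells/well to threefold payload dilutions, run both plus and minus verapamil (5 ug/mL) in RPMI with 10% FBS. ATP luminescence (CellTiter-Glo) gives viability; four-parameter logistic fit of 10 points yields IC50, and 100 − % viable at highest dose gives % kill.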

HL60/MX2 cells = experiment: Cytotoxicity in panel of MDR cell lines, HL60/MX2 (72 h and 144 h); assay type: cell-based, human; details: for IC50: Homo sapiens
In short: (§2)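 MDR lines were seeded at 1000 cells/well in their normal growth media: RPMI/10% FBS for HCT-15 and HL60/MX2, RPMI/20% FBS for H69AR, and Waymouth's:McCoy's 1:1 with 10% FBS for MES-SA/MX2. Cells were exposed to 1:3 serially diluted payloads for 72 h or 144 h, and viability was read by CellTiter-Glo ATP luminescence. IC50 came from a four-parameter logistic fit; % kill at top concentration = 100 − % viable.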

MES-SA/MX2 cells = experiment: Cytotoxicity in panel of MDR cell lines, MES-SA/MX2 (72 h and 144 h); assay type: cell-based, human; details: for IC50: Homo sapiens
In short: as §2

HCT-15 cells = experiment: Cytotoxicity in panel of MDR cell lines, HCT-15 (72 h and 144 h); assay type: cell-based, human; details: for IC50: Homo sapiens
In short: as §2

H69AR cells = experiment: Cytotoxicity in panel of MDR cell lines, H69AR (72 h and 144 h); assay type: cell-based, human; details: for IC50: Homo sapiens
In short: as §2

[1] = with 5 ug/mL Verapamil, read-out: HCT-15 + verapamil IC50
[2] = Homo sapiens, HCT-15, without Verapamil, read-out: HCT-15 IC50
[3] = 72 h incubation, read-out: HL60/MX2 IC50 72 h
[4] = 144 h incubation, read-out: HL60/MX2 IC50 144 h
[5] = 72 h incubation, read-out: MES-SA/MX2 IC50 72 h
[6] = 144 h incubation, read-out: MES-SA/MX2 IC50 144 h
[7] = 72 h incubation, read-out: HCT-15 IC50 72 h
[8] = 144 h incubation, read-out: HCT-15 IC50 144 h
[9] = 72 h incubation, read-out: H69AR IC50 72 h
[10] = 144 h incubation, read-out: H69AR IC50 144 h

| SMILES | IC50 (C4-2 cells) | C4-2 % Kill (C4-2 cells) | IC50 (T47D cells) | T47D % Kill (T47D cells) | IC50 (HEK293 cells) | HEK293 % Kill (HEK293 cells) | HCT-15 + verapamil % Kill (HCT15 cells; with 5 ug/mL Verapamil) | IC50 (HCT15 cells; [1]) | HCT-15 % Kill (HCT15 cells; without Verapamil) | IC50 (HCT15 cells; [2]) | HL60/MX2 % Kill 72 h (HL60/MX2 cells; 72 h incubation) | HL60/MX2 % Kill 144 h (HL60/MX2 cells; 144 h incubation) | IC50 (HL60/MX2 cells; [3]) | IC50 (HL60/MX2 cells; [4]) | MES-SA/MX2 % Kill 72 h (MES-SA/MX2 cells; 72 h incubation) | MES-SA/MX2 % Kill 144 h (MES-SA/MX2 cells; 144 h incubation) | IC50 (MES-SA/MX2 cells; [5]) | IC50 (MES-SA/MX2 cells; [6]) | HCT-15 % Kill 72 h (HCT-15 cells; 72 h incubation) | HCT-15 % Kill 144 h (HCT-15 cells; 144 h incubation) | other results |
| --- | --- | --- | --- | --- | --- | --- | --- | --- | --- | --- | --- | --- | --- | --- | --- | --- | --- | --- | --- | --- | --- |
| C#CCCCON(C(=O)[C@@H](NC(=O)[C@H]1CCCCN1C)[C@@H](C)CC)[C@H](C[C@@H](OC(C)=O)c1nc(C(=O)N[C@@H](Cc2ccccc2)CC(C)(C)C(=O)O)cs1)C(C)C [Vc, (4S)-4-({2-[(1R,3R)-1-(Acetyloxy)-4-methyl-3-[(2S,3S)-3-methyl-2-{[(2R)-1-methylpiperidin-2-yl]formamido}-N-(pent-4-yn-1-yloxy)pentanamido]pentyl]-1,3-thiazol-4-yl}formamido)-2,2-dimethyl-5-phenylpentanoic acid] | 0.036 nM | 91.7% | 0.0677 nM | 64.9% | 0.113 nM | 86.9% | 96.7% | 0.146 nM | 97.6% | 0.475 nM | 98.4% | 99.9% | < 0.015 nM | < 0.015 nM | 99.2% | 100% | 0.0895 nM | 0.299 nM | 97.6% | 99.7% | IC50 (HCT-15 cells; [7]): 0.033 nM; IC50 (HCT-15 cells; [8]): 0.0675 nM; H69AR % Kill 72 h (H69AR cells; 72 h incubation): 96.6%; H69AR % Kill 144 h (H69AR cells; 144 h incubation): 99.4%; IC50 (H69AR cells; [9]): 0.154 nM; IC50 (H69AR cells; [10]): 0.287 nM |
| C#CCCCCN(C(=O)[C@@H](NC(=O)[C@H]1CCCCN1C)[C@@H](C)CC)[C@H](C[C@@H](OC(C)=O)c1nc(C(=O)N[C@@H](Cc2ccc(O)cc2)C[C@H](C)C(=O)O)cs1)C(C)C [IVf, (2S,4R)-4-({2-[(1R,3R)-1-(Acetyloxy)-3-[(2S,3S)—N-(hex-5-yn-1-yl)-3-methyl-2-{[(2R)-1-methylpiperidin-2-yl]formamido}pentanamido]-4-methylpentyl]-1,3-thiazol-4-yl}formamido)-5-(4-hydroxyphenyl)-2-methylpentanoic acid] | 0.229 nM | 93.8% | 0.782 nM | 67.1% | 1.64 nM | 86.0% | 97.7% | 0.686 nM | 96.4% | 0.554 nM | 97.2% | 100% | 0.222 nM | < 0.015 nM | 99.1% | 99.9% | 2.57 nM | 3.82 nM | 96.9% | 99.8% | IC50 (HCT-15 cells; [7]): 0.419 nM; IC50 (HCT-15 cells; [8]): 0.396 nM; H69AR % Kill 72 h (H69AR cells; 72 h incubation): 94.6%; H69AR % Kill 144 h (H69AR cells; 144 h incubation): 98.9%; IC50 (H69AR cells; [9]): 1.33 nM; IC50 (H69AR cells; [10]): 1.55 nM |
| CCCCCCNC(=O)O[C@H](C[C@H](C(C)C)N(OCCCCCC)C(=O)[C@@H](NC(=O)[C@H]1CCCCN1C)[C@@H](C)CC)c1nc(C(=O)N[C@@H](Cc2ccc(O)cc2)C[C@H](C)C(=O)O)cs1 [VIe, (2S,4R)-5-(4-Hydroxyphenyl)-4-(2-((9R,11R)-9-isopropyl-8-((2S,3S)-3-methyl-2-((R)-1-methylpiperidine-2-carboxamido)pentanoyl)-13-oxo-7,12-dioxa-8,14-diazaicosan-11-yl)thiazole-4-carboxamido)-2-methylpentanoic acid] | 8.22 nM | 94.4 ± 0.2% | 2.27 nM | 72.7% | 4.77 nM | 76.7% | 98.8% | 0.295 nM | 36.6% | > 100 nM | – | – | – | – | – | – | – | – | – | – | – |
| C#CCCCON(C(=O)[C@@H](NC(=O)[C@H]1CCCCN1C)[C@@H](C)CC)[C@H](C[C@@H](OC(=O)NCC)c1nc(C(=O)N[C@@H](Cc2ccc(N)cc2)CC(C)(C)C(=O)O)cs1)C(C)C [VIf, (4S)-5-(4-Aminophenyl)-4-({2-[(1R,3R)-1-[(ethylcarbamoyl)oxy]-4-methyl-3-[(2S,3S)-3-methyl-2-{[(2R)-1-methylpiperidin-2-yl]formamido}-N-(pent-4-yn-1-yloxy)pentanamido]pentyl]-1,3-thiazol-4-yl}formamido)-2,2-dimethylpentanoic acid] | 0.312 nM | 93.9% | 0.302 nM | 63.2% | 0.383 nM | 85.6% | 98.8% | 0.0854 nM | 99.1% | 2.06 nM | – | – | – | – | – | – | – | – | – | – | – |
| CCCCCCON(C(=O)[C@@H](NC(=O)[C@H]1CCCCN1C)[C@@H](C)CC)[C@H](C[C@@H](OC(=O)NCCCC)c1nc(C(=O)N[C@@H](Cc2ccc(O)cc2)C[C@H](C)C(=O)O)cs1)C(C)C [VId, (2S,4R)-5-(4-Hydroxyphenyl)-4-(2-((8R,10R)-10-isopropyl-11-((2S,3S)-3-methyl-2-((R)-1-methylpiperidine-2-carboxamido)pentanoyl)-6-oxo-7,12-dioxa-5,11-diazaoctadecan-8-yl)thiazole-4-carboxamido)-2-methylpentanoic acid] | 2.4 nM | 95.5 ± 2.6% | 2.51 nM | 68.4% | 5.26 nM | 78.5% | 99% | 0.482 nM | 78.7% | > 30 nM | – | – | – | – | – | – | – | – | – | – | – |
| CC[C@H](C)[C@H](NC(=O)[C@H]1CCCCN1C)C(=O)N(CCCCc1c[nH]nn1)[C@H](C[C@@H](OC(C)=O)c1nc(C(=O)N[C@@H](Cc2ccc(N)cc2)CC(C)(C)C(=O)O)cs1)C(C)C [IVj, (S)-4-(2-((1R,3R)-3-((2S,3S)—N-(4-(1H-1,2,3-triazol-5-yl)butyl)-3-methyl-2-((R)-1-methylpiperidine-2-carboxamido)pentanamido)-1-acetoxy-4-methylpentyl)thiazole-4-carboxamido)-5-(4-aminophenyl)-2,2-dimethylpentanoic acid] | 7.16 nM | 94.5% | 17.7 nM | 79.9% | 17.6 nM | 75.5% | 98.4% | 5.56 nM | 96.4% | 7.8 nM | – | – | – | – | – | – | – | – | – | – | – |
